Reference: PMC12881674, “Activation of TRPV3 channels in bladder cancer cells stimulates ATP release” (Molecular Pharmacology, 2025)

Tested on: KU-19-19 cells
Assay: ATPlite luminescence assay of extracellular ATP
Format: cell-based, human
Conditions: 50 μM AV3-1, 30 minutes
Method: KU-19-19 cells (1 × 10^5 per well) were plated in 24-well plates and cultured for 24 hours. Medium was removed, and wells were washed with PBS before adding 1 mL of drugs dissolved in PBS. After 30 minutes, 100 μL of the supernatant was transferred to a 96-well plate. ATP content was measured using the ATPlite luminescence ATP assay (Revvity, catalog number 6016943) following manufacturer’s instructions. Luminescence was recorded using a Polarstar Omega reader and normalized to control wells without addition of drugs.
Fig. 4 TRPV3 activation by AV3-1 was enhanced by cholesterol supplementation and causes ATP release in KU-19-19 bladder cancer cells. […] Current amplitudes were recorded using voltage ramps from −100 mV to +100 mV (500-millisecond duration) and expressed as current density (pA/pF) measured at +100 mV and −100 mV. (C) Quantification of current densities (pA/pF) at −100 mV (inward current) and +100 mV (outward current) at the time points (1, 2) as indicated in (A, B). […] Statistical significance was determined using Kruskal-Wallis ANOVA followed by Conover test; ∗P < .05. […] Inset: Box-and-whisker plots of AV3-1 potencies under control conditions (open box) and following cholesterol supplementation (gray box), derived from individual concentration-response fits and expressed as pEC50 (-log10(EC50 [M])). […]

COC(=O)C12CN(Cc3ccccc3)CC1(C(=O)OC)CN(Cc1ccccc1)C2 (stereo not shown) [AV3-1]
ATP release compared with untreated control cells: statistically significant increased ATP release
